Measured values: the NIST ThermoML archive (doi:10.1021/je060457+)

Test: refractive index (Na D-line) (dimensionless); xn = mol fraction of the nth substance listed
Conditions: 101 kPa, Liquid, Standard Abbe refractometry

CNCCO [2-(methylamino)ethanol] + O
refractive index
Conditions | 293.15 K | 298.15 K | 303.15 K | 308.15 K | 313.15 K | 318.15 K | 323.15 K
x1 = 0.0493 | 1.3559 | 1.3552 | 1.3544 | 1.3536 | 1.3527 | 1.3517 | 1.3507
x1 = 0.0657 | 1.3625 | 1.3617 | 1.3608 | 1.3599 | 1.3589 | 1.3579 | 1.3568
x1 = 0.1054 | 1.3767 | 1.3754 | 1.3744 | 1.3732 | 1.372 | 1.3708 | 1.3696
x1 = 0.1987 | 1.3997 | 1.3983 | 1.3967 | 1.3956 | 1.394 | 1.3921 | 1.3907
x1 = 0.301 | 1.4151 | 1.4137 | 1.412 | 1.4105 | 1.4091 | 1.4074 | 1.4055
x1 = 0.3834 | 1.4235 | 1.4218 | 1.4201 | 1.4186 | 1.417 | 1.4151 | 1.4134
x1 = 0.5041 | 1.4288 | 1.4272 | 1.4253 | 1.4239 | 1.4221 | 1.4204 | 1.4187
x1 = 0.6 | 1.4324 | 1.4306 | 1.4289 | 1.4272 | 1.4254 | 1.4238 | 1.422
x1 = 0.6974 | 1.4347 | 1.4329 | 1.4311 | 1.4294 | 1.4275 | 1.4257 | 1.4239
x1 = 0.8008 | 1.4366 | 1.4348 | 1.433 | 1.4313 | 1.4293 | 1.4274 | 1.4257
x1 = 0.9031 | 1.4381 | 1.4363 | 1.4344 | 1.4328 | 1.4306 | 1.4288 | 1.4268
x1 = 1 | 1.4393 | 1.4375 | 1.4356 | 1.4339 | 1.4318 | 1.4298 | 1.4278
